In patent publication US7064143B1, “Positive modulators of nicotinic receptor agonists” (AstraZeneca AB, priority 2000, dated 2006):

melting point	SMILES
163.5 to 165.5 °C	Cn1c(C(=O)NC(CF)Cc2ccccc2)cc2c(O)cccc21 (centres unmarked) [Example 23, N-(1-Fluoromethyl-2-phenylethyl) 4-hydroxy-1-methyl-1H-indole-2-carboxamide]
157 to 158 °C	Cn1c(C(=O)NC(CF)Cc2ccccc2)cc2c(O)cccc21 (single isomer, unassigned; (+)) [Example 29, (+)-N-(1-Fluoromethyl-2-phenylethyl)4-hydroxy-1-methyl-1H-indole-2-carboxamide]
